Laboratory results reported in ChEMBL document CHEMBL1152207, “Leucettamol A: a new inhibitor of Ubc13-Uev1A interaction isolated from a marine sponge, Leucetta aff. microrhaphis” (Bioorg Med Chem Lett, 2008).
The source made the active and inactive calls. No cut-off for these calls is given here.

Columns and labels:
[1] = biological target: Ubiquitin-conjugating enzyme E2 N/Ubiquitin-conjugating enzyme E2 variant 1 (Homo sapiens, UniProt P61088+Q13404); assay: (§1) Inhibition of human Ubc13-Uev1A interaction expressed in Escherichia BL21 after 15 mins by ELISA
[2] = biological target: Ubiquitin-conjugating enzyme E2 N/Ubiquitin-conjugating enzyme E2 variant 1 (Homo sapiens) (UniProt Q13404+P61088); assay: as §1
[3] = biological target: T1, Ubiquitin-conjugating enzyme E2 N (Homo sapiens) (UniProt P61088); assay: Inhibition of Ubc13-[…] interaction by ELISA
T1 sequence (whole entry): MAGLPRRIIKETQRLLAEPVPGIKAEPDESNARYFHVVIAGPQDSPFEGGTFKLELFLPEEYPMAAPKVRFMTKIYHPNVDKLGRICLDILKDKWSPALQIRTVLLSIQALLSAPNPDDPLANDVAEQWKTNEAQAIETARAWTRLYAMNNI

| IC50 [1] [µM] | Activity [2] | Activity [3] | Compound |
| --- | --- | --- | --- |
| 8.25 | – | – | C[C@@H](N)[C@@H](O)CCCCCCCCCCCCCCCCCCCCCCCC[C@H](O)[C@@H](C)N |
| – | inactive | – | CC(=O)N[C@H](C)[C@H](C/C=C\C/C=C\C/C=C\C/C=C\C/C=C\C/C=C\CCCCCC[C@H](OC(C)=O)[C@@H](C)NC(C)=O)OC(C)=O |
| 106 | – | inactive | C[C@@H](N)[C@@H](O)C/C=C\C/C=C\C/C=C\C/C=C\C/C=C\C/C=C\CCCCCC[C@H](O)[C@@H](C)N [LEUCETTAMOL A] |
